Experimental data: ChEMBL document CHEMBL3407399, “BPIC: A novel anti-tumor lead capable of inhibiting inflammation and scavenging free radicals” (Bioorg Med Chem Lett, 2015)
Calls of active or inactive are those of the source. The calls are words filed in the database; no cut-off is given here.

Experiments:
Calf thymus DNA [1] = assay: Binding affinity to calf thymus DNA at 40 uM by UV-spectrophotometric analysis; assay type: nucleic-acid assay; conditions: Bos taurus
Calf thymus DNA [2] = assay: Binding affinity to calf thymus DNA at 40 uM by fluoresce spectrum analysis; assay type: nucleic-acid assay; conditions: Bos taurus
HT-29 = assay: Antiproliferative activity against human HT-29 cells assessed as cell viability after 48 hrs by MTT assay; assay type: functional, cell-based; conditions: HT-29, 48 h
[3] = Antiproliferative activity against human HL60 cells assessed as cell viability after 48 hrs by MTT assay; assay type: functional, cell-based; conditions: HL-60, 48 h
K562 = assay: Antiproliferative activity against human K562 cells assessed as cell viability after 48 hrs by MTT assay; assay type: functional, cell-based; conditions: K562, 48 h
HepG2 = assay: Antiproliferative activity against human HepG2 cells assessed as cell viability after 48 hrs by MTT assay; assay type: functional, cell-based; conditions: HepG2, 48 h
HeLa = assay: Antiproliferative activity against human HeLa cells assessed as cell viability after 48 hrs by MTT assay; assay type: functional, cell-based
CCRF S-180 [4] = assay: Antiproliferative activity against mouse S180 cells assessed as cell viability after 48 hrs by MTT assay; assay type: functional, cell-based; conditions: CCRF S-180, 48 h
A549 = assay: Antiproliferative activity against human A549 cells assessed as cell viability after 48 hrs by MTT assay; assay type: functional, cell-based; conditions: A549, 48 h
[5] = Antiproliferative activity against human SH-SY5Y cells assessed as cell viability after 48 hrs by MTT assay; assay type: functional, cell-based
CCRF S-180 [6] = assay: Antitumor activity against mouse S180 cells allografted in male ICR mouse assessed as tumor growth inhibition treated orally ervery day for 7 days; assay type: functional
CCRF S-180 [7] = assay: Antitumor activity against mouse S180 cells allografted in male ICR mouse assessed as tumor growth inhibition at 0.1 umol/kg, po treated ervery day for 7 days relative to NS control; assay type: functional, organism-based
Mus musculus [8] = assay: Antiinflammatory activity in male ICR mouse assessed as xylene-induced ear edema at 1 umol/kg, ip relative to NS; assay type: functional, organism-based
Mus musculus [9] = assay: Antiinflammatory activity against xylene-induced male ICR mouse ear edema model assessed as plasma TNFalpha at 1 umol/kg, ip relative to NS; assay type: functional, organism-based
Mus musculus [10] = assay: Antiinflammatory activity against xylene-induced male ICR mouse ear edema model assessed as plasma IL-8 at 1 umol/kg, ip relative to NS; assay type: functional, organism-based
[11] = Antioxidant activity assessed as NO free radical scavenging activity produced from N-methyl-D-glucamine dithiocarbamate by ESR assay; assay type: physicochemical
[12] = Antioxidant activity assessed as O2 free radical scavenging activity produced from dimethylpyridine-N-oxide by ESR assay; assay type: physicochemical
[13] = Antioxidant activity assessed as OH free radical scavenging activity produced from dimethylpyridine-N-oxide by ESR assay; assay type: physicochemical

| Activity (Calf thymus DNA [1]) | Activity (Calf thymus DNA [2]) | IC50 (HT-29) | IC50 (K562) | IC50 (HepG2) | IC50 (HeLa) | IC50 (CCRF S-180 [4]) | IC50 (A549) | EC50 [11] | EC50 [12] | EC50 [13] | Compound | IC50 [3] | IC50 [5] | inhibition (CCRF S-180 [6]) | inhibition (CCRF S-180 [7]) | inhibition (Mus musculus [8]) | inhibition (Mus musculus [9]) | inhibition (Mus musculus [10]) |
| --- | --- | --- | --- | --- | --- | --- | --- | --- | --- | --- | --- | --- | --- | --- | --- | --- | --- | --- |
| Active | Active | 960 nM | 960 nM | 960 nM | 960 nM | 960 nM | 960 nM | 73000 nM | 285000 nM | 170 nM | COC(=O)c1cc(-c2nc(C(=O)OCc3ccccc3)cc3c2[nH]c2ccccc23)ccc1O | 960 nM | 960 nM | Dose-dependent effect | Dose-dependent effect | Active | Active | Active |
|  |  |  |  |  |  | 9250 nM |  |  |  |  | COc1cccc2c1C(=O)c1c(O)c3c(c(O)c1C2=O)C[C@@](O)(C(=O)CO)C[C@@H]3O[C@H]1C[C@H](N)[C@H](O)[C@H](C)O1 [DOXORUBICIN] |  |  |  |  |  |  |  |
